Source: PMC11702208 (RSC Advances, 2025)
“And” between values parts separate entries of the source, which are not always exact repeats. Equal entries are not always repeated.

How the values were obtained:
[1] = test system: RPMI-8226; assay: NCI cytotoxicity screen; format: cell-based, human; settings: for GI %: 10.0 μM one dose; for GI50: Homo sapiens
[2] = test system: HL-60(TB); settings: 10.0 μM one dose
[3] = test system: K-562; settings: 10.0 μM one dose
[4] = test system: UACC-62; assay: NCI cytotoxicity screen; format: cell-based, human; settings: for GI %: 10.0 μM one dose; for GI50: Homo sapiens
[5] = test system: OVCAR-4; assay: NCI cytotoxicity screen; format: cell-based, human; settings: for GI %: 10.0 μM one dose, IGROV-4; for GI50: Homo sapiens, OVCAR-4
[6] = test system: Melanoma subpanel tumor cell lines; assay: NCI cytotoxicity screen, subpanel; format: cell-based, human; settings: for CC50: read-out: LC50; for GI50 / TGI: subpanel value, Melanoma
[7] = molecular target: EGFR (Homo sapiens, UniProt P00533); assay: biochemical; settings: IC50 EGFR inhibition
[8] = test system: Prostate cancer subpanel tumor cell lines; assay: NCI cytotoxicity screen, subpanel; format: cell-based, human; settings: for CC50: read-out: LC50; for GI50 / TGI: subpanel value, Prostate cancer
[9] = test system: Breast cancer subpanel tumor cell lines; assay: NCI cytotoxicity screen, subpanel; format: cell-based, human; settings: for CC50: read-out: LC50; for GI50 / TGI: subpanel value, Breast cancer
[10] = molecular target: T1, COX-2 (Ovis aries, UniProt P79208); assay: Colorimetric COX; format: biochemical, ovine
T1 sequence (P79208 17-603): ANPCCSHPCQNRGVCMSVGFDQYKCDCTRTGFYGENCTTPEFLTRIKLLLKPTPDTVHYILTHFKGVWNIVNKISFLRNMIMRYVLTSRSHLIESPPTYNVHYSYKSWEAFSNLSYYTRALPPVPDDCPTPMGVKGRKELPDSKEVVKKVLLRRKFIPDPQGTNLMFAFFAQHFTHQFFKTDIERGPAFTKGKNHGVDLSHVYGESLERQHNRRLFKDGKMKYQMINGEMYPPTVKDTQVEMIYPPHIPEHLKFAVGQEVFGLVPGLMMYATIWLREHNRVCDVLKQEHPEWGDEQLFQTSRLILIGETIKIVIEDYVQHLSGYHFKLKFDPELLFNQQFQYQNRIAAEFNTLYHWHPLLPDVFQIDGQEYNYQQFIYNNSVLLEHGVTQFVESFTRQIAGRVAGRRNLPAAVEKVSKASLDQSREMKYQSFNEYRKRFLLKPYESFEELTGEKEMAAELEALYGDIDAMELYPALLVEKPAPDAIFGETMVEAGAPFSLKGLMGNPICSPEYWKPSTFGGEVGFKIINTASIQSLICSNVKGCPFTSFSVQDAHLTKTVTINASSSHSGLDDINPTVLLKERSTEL

[11] = test system: T-47D cells; assay: Cell cycle analysis; format: cell-based; settings: compound at IC50 concentration
[12] = test system: IGROV1; assay: NCI cytotoxicity screen; format: cell-based, human; settings: for GI %: 10.0 μM one dose, IGROV1; for GI50: Homo sapiens, IGROV-1
[13] = test system: MCF7; assay: NCI cytotoxicity screen; format: cell-based, human; settings: for GI %: 10.0 μM one dose, MCF-7; for GI50: Homo sapiens, MCF7
[14] = molecular target: HER2 (Homo sapiens, UniProt P04626); assay: HER2 tyrosine kinase assay; format: biochemical; settings: IC50 HER2 inhibition
[15] = molecular target: CDK9 (Homo sapiens, UniProt P50750); assay: biochemical; settings: IC50 CDK9 inhibition
[16] = test system: RXF 393; assay: NCI cytotoxicity screen; format: cell-based, human; settings: for GI %: 10.0 μM one dose; for GI50: Homo sapiens
[17] = test system: MDA-MB-468; assay: NCI cytotoxicity screen; format: cell-based, human; settings: for GI %: 10.0 μM one dose; for GI50: Homo sapiens
[18] = test system: CAKI-1; assay: NCI cytotoxicity screen; format: cell-based, human; settings: for GI %: 10.0 μM one dose; for GI50: Homo sapiens
[19] = test system: 786-0; assay: NCI cytotoxicity screen; format: cell-based, human; settings: for GI %: 10.0 μM one dose; for GI50: Homo sapiens
[20] = test system: KM12; assay: NCI cytotoxicity screen; format: cell-based, human; settings: for GI %: 10.0 μM one dose, KM-12; for GI50: Homo sapiens, KM12
[21] = test system: COLO 205; assay: NCI cytotoxicity screen; format: cell-based, human; settings: for GI %: 10.0 μM one dose, COLO-205; for GI50: Homo sapiens, COLO 205
[22] = test system: K-562; assay: cells; settings: Homo sapiens, K562
[23] = test system: TK-10; assay: NCI cytotoxicity screen; format: cell-based, human; settings: for GI %: 10.0 μM one dose; for GI50: Homo sapiens
[24] = test system: A549/ATCC; assay: NCI cytotoxicity screen; format: cell-based, human; settings: for GI %: 10.0 μM one dose, A549/ATCC; for GI50: Homo sapiens, A549
[25] = test system: SK-MEL-5; assay: NCI cytotoxicity screen; format: cell-based, human; settings: for GI %: 10.0 μM one dose; for GI50: Homo sapiens
[26] = test system: MDA-MB-231/ATCC; assay: NCI cytotoxicity screen; format: cell-based, human; settings: for GI %: 10.0 μM one dose, MDA-MB-231/ATCC; for GI50: Homo sapiens, MDA-MB-231
[27] = test system: SK-MEL-2; assay: NCI cytotoxicity screen; format: cell-based, human; settings: for GI %: 10.0 μM one dose; for GI50: Homo sapiens
[28] = test system: HCT-116; assay: NCI cytotoxicity screen; format: cell-based, human; settings: for GI %: 10.0 μM one dose; for GI50: Homo sapiens
[29] = test system: SW-620; assay: NCI cytotoxicity screen; format: cell-based, human; settings: for GI %: 10.0 μM one dose; for GI50: Homo sapiens
[30] = test system: Renal cancer subpanel tumor cell lines; assay: NCI cytotoxicity screen, subpanel; format: cell-based, human; settings: for CC50: read-out: LC50; for GI50 / TGI: subpanel value, Renal cancer
[31] = test system: SNB-19; assay: NCI cytotoxicity screen; format: cell-based, human; settings: for GI %: 10.0 μM one dose; for GI50: Homo sapiens
[32] = test system: MOLT4 cells; assay: Cell cycle analysis; format: cell-based; settings: compound at IC50 concentration
[33] = test system: MOLT4 cells; assay: Annexin V-FITC/PI apoptosis assay; format: cell-based
[34] = test system: A498; assay: NCI cytotoxicity screen; format: cell-based, human; settings: Homo sapiens, A498

Chain of EGFR (P00533 25-1210): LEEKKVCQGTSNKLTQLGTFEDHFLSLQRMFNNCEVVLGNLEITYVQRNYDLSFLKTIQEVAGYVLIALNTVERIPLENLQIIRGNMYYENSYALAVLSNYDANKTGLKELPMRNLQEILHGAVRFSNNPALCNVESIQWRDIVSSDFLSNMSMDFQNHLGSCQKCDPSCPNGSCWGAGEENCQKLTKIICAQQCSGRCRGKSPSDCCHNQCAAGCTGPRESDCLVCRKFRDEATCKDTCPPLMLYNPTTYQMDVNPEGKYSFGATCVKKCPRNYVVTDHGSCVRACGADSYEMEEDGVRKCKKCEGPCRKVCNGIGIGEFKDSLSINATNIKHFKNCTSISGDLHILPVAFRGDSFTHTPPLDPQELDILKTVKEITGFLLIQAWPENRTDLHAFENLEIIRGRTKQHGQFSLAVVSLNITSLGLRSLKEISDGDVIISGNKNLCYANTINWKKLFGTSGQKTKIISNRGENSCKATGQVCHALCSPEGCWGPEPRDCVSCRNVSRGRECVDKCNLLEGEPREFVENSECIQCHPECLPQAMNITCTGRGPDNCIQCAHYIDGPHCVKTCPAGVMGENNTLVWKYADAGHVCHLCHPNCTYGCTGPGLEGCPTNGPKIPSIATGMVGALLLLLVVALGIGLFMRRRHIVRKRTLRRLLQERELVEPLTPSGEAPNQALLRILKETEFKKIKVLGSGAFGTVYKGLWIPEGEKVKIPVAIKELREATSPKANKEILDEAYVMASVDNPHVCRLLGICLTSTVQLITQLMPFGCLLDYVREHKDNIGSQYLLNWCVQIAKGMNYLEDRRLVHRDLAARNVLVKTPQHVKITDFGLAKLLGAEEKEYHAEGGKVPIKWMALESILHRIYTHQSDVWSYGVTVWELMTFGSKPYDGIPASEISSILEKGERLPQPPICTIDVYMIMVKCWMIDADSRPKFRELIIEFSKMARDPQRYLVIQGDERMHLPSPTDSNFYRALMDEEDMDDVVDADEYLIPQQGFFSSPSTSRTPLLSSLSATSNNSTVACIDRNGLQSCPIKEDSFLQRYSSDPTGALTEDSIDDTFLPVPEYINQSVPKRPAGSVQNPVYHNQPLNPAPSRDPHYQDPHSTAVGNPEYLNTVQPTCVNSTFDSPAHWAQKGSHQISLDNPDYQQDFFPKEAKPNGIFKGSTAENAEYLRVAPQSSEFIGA
Chain of CDK9 (P50750 whole entry): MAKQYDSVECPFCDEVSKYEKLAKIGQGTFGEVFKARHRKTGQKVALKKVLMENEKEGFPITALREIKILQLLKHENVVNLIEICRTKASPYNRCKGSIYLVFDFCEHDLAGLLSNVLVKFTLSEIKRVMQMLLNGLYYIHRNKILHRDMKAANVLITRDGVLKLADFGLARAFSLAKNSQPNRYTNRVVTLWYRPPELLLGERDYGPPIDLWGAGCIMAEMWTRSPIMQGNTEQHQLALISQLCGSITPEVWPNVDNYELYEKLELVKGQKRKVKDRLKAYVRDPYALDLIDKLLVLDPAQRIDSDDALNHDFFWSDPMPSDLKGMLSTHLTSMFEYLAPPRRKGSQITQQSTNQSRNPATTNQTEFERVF
Chain of CDK9 (O60563 whole entry partner): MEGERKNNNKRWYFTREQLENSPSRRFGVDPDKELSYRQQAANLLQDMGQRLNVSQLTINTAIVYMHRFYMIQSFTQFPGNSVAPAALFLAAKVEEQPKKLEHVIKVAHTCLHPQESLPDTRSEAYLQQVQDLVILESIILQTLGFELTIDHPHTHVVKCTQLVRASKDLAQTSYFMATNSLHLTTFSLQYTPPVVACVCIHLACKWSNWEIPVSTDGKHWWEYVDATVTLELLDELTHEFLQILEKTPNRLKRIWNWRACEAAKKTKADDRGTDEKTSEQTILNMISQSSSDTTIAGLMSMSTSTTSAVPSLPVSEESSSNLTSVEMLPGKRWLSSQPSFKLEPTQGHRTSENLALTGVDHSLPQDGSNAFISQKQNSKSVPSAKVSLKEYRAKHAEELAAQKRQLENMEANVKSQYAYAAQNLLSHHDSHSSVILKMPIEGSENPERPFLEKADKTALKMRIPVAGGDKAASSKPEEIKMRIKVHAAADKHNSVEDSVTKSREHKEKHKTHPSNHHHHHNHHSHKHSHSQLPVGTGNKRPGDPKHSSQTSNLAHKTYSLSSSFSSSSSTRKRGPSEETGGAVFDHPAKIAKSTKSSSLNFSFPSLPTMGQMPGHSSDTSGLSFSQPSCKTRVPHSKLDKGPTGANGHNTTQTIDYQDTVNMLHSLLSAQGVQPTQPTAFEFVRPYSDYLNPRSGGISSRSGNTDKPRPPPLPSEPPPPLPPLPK
Chain of HER2 (P04626 23-1255): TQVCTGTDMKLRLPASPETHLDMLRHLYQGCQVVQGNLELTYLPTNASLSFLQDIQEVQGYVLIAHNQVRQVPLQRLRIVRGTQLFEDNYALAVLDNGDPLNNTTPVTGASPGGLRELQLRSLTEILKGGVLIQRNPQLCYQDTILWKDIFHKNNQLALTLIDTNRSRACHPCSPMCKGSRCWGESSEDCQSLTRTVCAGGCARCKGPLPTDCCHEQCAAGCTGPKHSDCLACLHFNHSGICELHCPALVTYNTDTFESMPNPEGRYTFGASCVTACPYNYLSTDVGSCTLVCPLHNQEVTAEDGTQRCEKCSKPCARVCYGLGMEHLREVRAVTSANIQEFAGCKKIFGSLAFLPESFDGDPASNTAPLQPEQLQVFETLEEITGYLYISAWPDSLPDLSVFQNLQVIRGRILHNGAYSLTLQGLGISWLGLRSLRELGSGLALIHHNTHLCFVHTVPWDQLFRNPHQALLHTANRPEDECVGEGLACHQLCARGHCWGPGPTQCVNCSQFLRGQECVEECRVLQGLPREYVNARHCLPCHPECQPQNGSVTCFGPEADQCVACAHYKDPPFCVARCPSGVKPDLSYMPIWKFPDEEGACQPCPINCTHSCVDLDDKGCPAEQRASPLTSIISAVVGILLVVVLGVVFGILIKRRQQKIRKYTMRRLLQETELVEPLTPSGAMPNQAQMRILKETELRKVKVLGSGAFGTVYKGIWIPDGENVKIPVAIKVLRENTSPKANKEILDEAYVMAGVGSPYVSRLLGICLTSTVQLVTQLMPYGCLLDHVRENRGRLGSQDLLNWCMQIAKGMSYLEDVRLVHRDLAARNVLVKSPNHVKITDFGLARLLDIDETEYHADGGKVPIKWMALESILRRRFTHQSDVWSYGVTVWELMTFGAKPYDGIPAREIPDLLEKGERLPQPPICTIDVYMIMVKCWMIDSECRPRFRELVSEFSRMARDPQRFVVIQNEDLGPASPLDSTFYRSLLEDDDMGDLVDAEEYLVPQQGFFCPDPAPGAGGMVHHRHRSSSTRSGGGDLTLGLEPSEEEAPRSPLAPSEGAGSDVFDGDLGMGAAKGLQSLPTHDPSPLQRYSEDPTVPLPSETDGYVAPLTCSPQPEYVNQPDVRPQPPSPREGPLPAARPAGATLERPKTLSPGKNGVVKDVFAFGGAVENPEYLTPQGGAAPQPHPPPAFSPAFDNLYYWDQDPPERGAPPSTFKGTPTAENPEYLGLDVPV

## CCN(CC)c1ccc(C=NNC(=O)CSc2nc3ccccc3c(=O)n2Cc2ccc(S(N)(=O)=O)cc2)c(O)c1 [Compound 5, 4-((2-((2-(2-(4-(Diethylamino)-2-hydroxybenzylidene)hydrazineyl)-2-oxoethyl)thio)-4-oxoquinazolin-3(4H)-yl)methyl)benzenesulfonamide]
[1]
  GI %: 83%
  GI50: 521 nM
[2]
  GI %: 120%
[3]
  GI %: 94%
[4]
  GI %: 94%
  GI50: 886 nM
[5]
  GI %: 88%
  GI50: 311 nM
[6]; Homo sapiens
  CC50: > 100000 nM
  GI50: 1500 nM
[6]
  GI50: 1500 nM
  TGI: 59090 nM
[7]
  IC50: 84.4 nM
[8]; Homo sapiens
  CC50: > 100000 nM
  GI50: 900 nM
[8]
  GI50: 886 nM
  TGI: c (Compounds showed values > 100 μM)
[9]; Homo sapiens
  CC50: > 100000 nM
  GI50: 1200 nM
[9]
  GI50: 1230 nM
  TGI: 84170 nM
[10]
  IC50: 3320 ± 60 nM
[11]
  %G0-G1: 46.31%
  %G2-M: 26.3%
  %S: 20.9%
[11]; listed as Five
  %G2-M: 26.27%
  %S: 27.42%
[12]
  GI %: 74%
  GI50: 785 nM
[13]
  GI %: 87%
  GI50: 457 nM
[14]
  IC50: 53.9 nM
[15]
  IC50: 147 ± 3.6 nM
[16]
  GI %: 58%
  GI50: 2500 nM
[17]
  GI %: 110%
  GI50: 524 nM
[18]
  GI %: 69%
  GI50: 1020 nM
[19]
  GI %: 68%
  GI50: 1840 nM
[20]
  GI %: 85%
  GI50: 569 nM
[21]
  GI %: 102%
  GI50: 1510 nM
[22]
  GI50: 592 nM
[23]
  GI %: 85%
  GI50: 1660 nM
[24]
  GI %: 71%
  GI50: 1570 nM
[25]
  GI %: 95%
  GI50: 1570 nM
[26]
  GI %: 75%
  GI50: 643 nM
[27]
  GI %: 90%
  GI50: 2410 nM
[28]
  GI %: 79%
  GI50: 363 nM
[29]
  GI %: 79%
  GI50: 949 nM
[30]; Homo sapiens
  CC50: > 100000 nM
  GI50: 1900 nM
[30]
  GI50: 1920 nM
  TGI: 91540 nM
[31]
  GI %: 59%
  GI50: 2100 nM

## NS(=O)(=O)c1ccc(Cn2c(SCC(=O)NN=Cc3ccccc3O)nc3ccccc3c2=O)cc1 [Compound 6, 4-((2-((2-(2-(2-Hydroxybenzylidene)hydrazineyl)-2-oxoethyl)thio)-4-oxoquinazolin-3(4H)-yl)methyl)benzenesulfonamide]
[1]
  GI %: 51%
[2]
  GI %: 60%
[3]
  GI %: 64%
[4]
  GI %: 62%
[5]
  GI %: 60%
[7]
  IC50: 51.5 nM
[10]
  IC50: 4470 ± 90 nM
[12]
  GI %: 38%
[13]
  GI %: 50%
[14]
  IC50: 44.1 nM
[15]
  IC50: 96.1 nM
[16]
  GI %: 28%
[17]
  GI %: 48%
[18]
  GI %: 46%
[19]
  GI %: 29%
[20]
  GI %: 61%
[21]
  GI %: 71%
[23]
  GI %: 47%
[24]
  GI %: 31%
[32]
  %G0-G1: 89.04%
  %G2-M: 1.40%
[25]
  GI %: 42%
[26]
  GI %: 70%
[27]
  GI %: 64%
[28]
  GI %: 58%
[29]
  GI %: 40%
[31]
  GI %: 45%
[33]
  Apoptosis Early: 19.2% and 19.22%
  Apoptosis Total: 35.06%
  Necrosis: 3.23%

## C#Cc1cccc(Nc2ncnc3cc(OCCOC)c(OCCOC)cc23)c1 [Erlotinib, reference compound]
[1]
  GI50: 5010 nM
[4]
  GI50: 1250 nM
[5]
  GI50: 20000 nM
[6]; Homo sapiens
  CC50: 93300 nM
  GI50: 23700 nM
[6]
  GI50: 23700 nM
  TGI: 77890 nM
[8]; Homo sapiens
  CC50: > 100000 nM
  GI50: 20900 nM
[8]
  TGI: c (Compounds showed values > 100 μM)
[9]; Homo sapiens
  CC50: 96400 nM
  GI50: 24700 nM
[9]
  GI50: 24700 nM
  TGI: 70530 nM
[12]
  GI50: 250 nM
[13]
  GI50: 100000 nM
[16]
  GI50: 6300 nM
[17]
  GI50: 200 nM
[18]
  GI50: 100 nM
[19]
  GI50: 5010 nM
[20]
  GI50: 63100 nM
[21]
  GI50: 31600 nM
[22]
  GI50: 15500 nM
[23]
  GI50: 100 nM
[24]
  GI50: 7940 nM
[34]
  GI50: 1580 nM
[25]
  GI50: 15800 nM
[26]
  GI50: 1990 nM
[27]
  GI50: 12600 nM
[28]
  GI50: 5010 nM
[29]
  GI50: 5010 nM
[30]; Homo sapiens
  CC50: 89200 nM
  GI50: 2500 nM
[30]
  GI50: 2460 nM
  TGI: 42590 nM
[31]
  GI50: 3980 nM

## COc1cc2ncnc(Nc3ccc(F)c(Cl)c3)c2cc1OCCCN1CCOCC1 [Gefitinib, reference compound]
[1]
  GI50: 1580 nM
[4]
  GI50: 5010 nM
[5]
  GI50: 7940 nM
[6]; Homo sapiens
  GI50: 3700 nM
[6]
  GI50: 3680 nM
  TGI: 12490 nM
[8]; Homo sapiens
  GI50: 3300 nM
[8]
  GI50: 3290 nM
  TGI: 31620 nM
[9]; Homo sapiens
  GI50: 4700 nM
[9]
  GI50: 4670 nM
  TGI: 18620 nM
[12]
  GI50: 200 nM
[13]
  GI50: 10000 nM
[16]
  GI50: 5010 nM
[17]
  GI50: 10 nM
[18]
  GI50: 160 nM
[19]
  GI50: 7940 nM
[20]
  GI50: 7940 nM
[22]
  GI50: 2510 nM
[23]
  GI50: 100 nM
[24]
  GI50: 7940 nM
[34]
  GI50: 400 nM
[25]
  GI50: 3980 nM
[26]
  GI50: 12600 nM
[27]
  GI50: 12600 nM
[28]
  GI50: 7940 nM
[29]
  GI50: 7940 nM
[31]
  GI50: 12600 nM
